Test results from US12059403B2, “Use of SWELL1 inhibitors and modulators to treat type 2 diabetes and obesity” (UNIVERSITY OF IOWA RESEARCH FOUNDATION, priority 2016, dated 2024).
Where a chain is given by its changes, count along the chain named.

Columns and labels:
[1] = target: T1, volume-regulated anion current (VRAC) (Mus musculus, UniProt Q80WG5); test: Patch-clamp of swell-activated current in mature murine iWAT adipocytes swelled by positive pressure; type: cell-based; conditions: positive pressure swelling, whole-cell
T1 construct: present in the murine 3T3-F442A and human adipocyte cell lines (NPAD) upon hypotonic swelling; endogenous in cells; host or cells: 3T3-F442A adipocytes
T1 sequence (Q80WG5 1-810): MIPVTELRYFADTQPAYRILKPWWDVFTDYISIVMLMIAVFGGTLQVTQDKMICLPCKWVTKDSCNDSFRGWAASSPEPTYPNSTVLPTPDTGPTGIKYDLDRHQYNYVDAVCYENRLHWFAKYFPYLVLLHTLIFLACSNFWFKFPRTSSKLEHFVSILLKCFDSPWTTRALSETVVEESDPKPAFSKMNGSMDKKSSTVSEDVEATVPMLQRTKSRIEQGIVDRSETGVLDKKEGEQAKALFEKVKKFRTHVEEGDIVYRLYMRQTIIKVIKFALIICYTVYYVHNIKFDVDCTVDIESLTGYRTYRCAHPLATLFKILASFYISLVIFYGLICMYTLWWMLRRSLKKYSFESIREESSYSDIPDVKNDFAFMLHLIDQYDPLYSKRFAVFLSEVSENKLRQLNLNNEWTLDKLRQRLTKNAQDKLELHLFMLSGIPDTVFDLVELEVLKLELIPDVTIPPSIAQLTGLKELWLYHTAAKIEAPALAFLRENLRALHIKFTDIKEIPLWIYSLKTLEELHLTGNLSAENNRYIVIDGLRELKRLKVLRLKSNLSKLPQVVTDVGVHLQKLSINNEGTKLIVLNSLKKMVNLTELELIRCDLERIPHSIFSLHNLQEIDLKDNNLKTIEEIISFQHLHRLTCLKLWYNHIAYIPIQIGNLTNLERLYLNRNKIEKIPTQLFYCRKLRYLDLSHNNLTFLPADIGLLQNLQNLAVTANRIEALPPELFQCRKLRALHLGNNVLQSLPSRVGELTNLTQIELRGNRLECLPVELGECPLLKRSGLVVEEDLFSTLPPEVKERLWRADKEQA
Description: To identify a putative swell-activated ionic current in adipocytes, patch-clamp recordings were performed on mature murine adipocytes freshly isolated from inguinal white adipose tissue (iWAT). Ionic currents were measured in voltage-clamp mode while simultaneously swelling the adipocyte by applying positive pressure (˜3-5 mmHg, whole-cell configuration) via the patch-pipette. After a few minutes, activation of a large swell-activated current was observed. This current is outward rectifying, characterized by larger outward current at positive voltages compared to inward currents at negative voltages during sequential voltage ramps or voltage steps, with the current amplitude proportional to the extent of adipocyte swelling. This current reverses direction at −11.7±2.5 mV, which is near the reversal potential of chloride under these conditions (−11.5 mV, junction potential corrected). […] Finally, this swell-activated adipocyte current is blocked by 4-[(2-Butyl-6,7-dichloro-2-cyclopentyl-2,3-dihydro-1-oxo-1H-inden-5-yl)oxy]butanoic acid (DCPIB), a selective blocker of the volume-regulated anion current (VRAC) or volume-sensitive outwardly rectifying chloride current (VSOR).

[2] = target: T1, volume-regulated anion current (VRAC); test: Patch-clamp of swell-activated current in 3T3-F442A adipocytes upon hypotonic swelling; type: cell-based; conditions: murine 3T3-F442A adipocytes
[3] = target: T2, volume-regulated anion current (VRAC) (Homo sapiens, UniProt Q8IWT6); test: Patch-clamp of swell-activated current in human adipocyte cell line (NPAD) upon hypotonic swelling; type: cell-based
T2 construct: present in the murine 3T3-F442A and human adipocyte cell lines (NPAD) upon hypotonic swelling; endogenous in cells; host or cells: human adipocyte cell line (NPAD)
T2 sequence (Q8IWT6 1-810): T1 sequence (Q80WG5 1-810) with S75P, S76G, V86I, A276I, V591A, V715I, A722T, S792N

β-cell VRAC [4] = target: T3, β-cell VRAC (Mus musculus, UniProt Q80WG5); test: Perforated-patch clamp of glucose-activated VRAC in MIN6 cells; type: cell-based; conditions: 35-37° C.
T3 construct: endogenous in cells; host or cells: MIN6 mouse insulinoma cells
T3 sequence (Q80WG5 1-810): T1 sequence (Q80WG5 1-810)
Description: (§1) Having established that SWELL1 is required for this previously enigmatic depolarizing swell-activated Cl^− current in MIN6 cells, and in both mouse and human primary β-cells, whether physiologic glucose-mediated β-cell swelling is sufficient to activate SWELL1-mediated VRAC was investigated. First, β-cell size was measured by light microscopy in WT and SWELL1-deficient primary murine and human β-cells in response to glucose-stimulated swelling (at 35-37° C.). WT murine β-cells swell 6.8±1.6% in cross-sectional area upon perfusion of 16.7 mM glucose (from 1 mM basal glucose) and reach a maximum size at 12 minutes post glucose-stimulation, followed by a reduction in β-cell size, consistent with regulatory volume decrease (RVD). […] WT human β-cells show a similar trend, swelling 8.6±3.5%, followed by RVD. […] Next, the perforated-patch clamp technique was applied to primary β-cells at 35-37° C. in order to measure currents under the same physiological conditions that induce glucose-mediated β-cell swelling. β-cell VRAC activates in response to physiological increases in glucose in MIN6 cells and in both mouse and human β-cells, and is blocked by the selective VRAC inhibitor, DCPIB. […]

β-cell VRAC [5] = target: T3, β-cell VRAC; test: Perforated-patch clamp of glucose-activated VRAC in primary mouse β-cells; type: cell-based; conditions: 35-37° C.
Description: as §1

β-cell VRAC [6] = target: T4, β-cell VRAC (Homo sapiens, UniProt Q8IWT6); test: Perforated-patch clamp of glucose-activated VRAC in primary human β-cells; type: cell-based; conditions: 35-37° C.
T4 construct: from tissue; host or cells: primary β-cells from human pancreatic islets
T4 sequence (Q8IWT6 1-810): T1 sequence (Q80WG5 1-810) with S75P, S76G, V86I, A276I, V591A, V715I, A722T, S792N
Description: as §1

SWELL1 = SWELL1 protein expression in cultured adipocytes; type: cell-based
[7] = test system: mice raised on a high-fat diet; test: Glucose tolerance in mice raised on a high-fat diet; type: in vivo
WT MIN6 cells = test: Glucose-stimulated intracellular Ca2+ in WT MIN6 cells; type: cell-based, mouse; conditions: 10 μM
Description: To determine whether SWELL1-mediated depolarizing Cl^− current is required to depolarize the β-cell membrane potential to the activation threshold of voltage-gated Ca^2+ channels (VGCC) essential for insulin granule fusion, glucose-stimulated intracellular Ca^2+ was measured in WT and SWELL1-deficient MIN6 β-cells, primary mouse and human β-cells.

[8] = test system: WT primary murine β-cells; test: Glucose-stimulated Ca2+ signaling (GCaMP6s imaging) in WT primary murine β-cells; type: cell-based; conditions: 10 μM
Excerpt: SWELL1-dependent Ca^2+ signaling was then examined in primary mouse and human β-cells. Adenoviruses expressing the genetically encoded Ca^2+-sensor GCaMP6s under control of the rat insulin promoter 1 (RIP1), either alone (Ad-RIP1-GCaMP6s), or in combination with Cre-recombinase (Ad-RIP1-Cre-P2A-GCaMP6s), were generated. This approach provides a robust β-cell restricted fluorescent Ca^2+ sensor while simultaneously allowing for β-cell targeted Cre-mediated SWELL1 deletion in cultured SWELL1^fl/fl islets isolated from SWELL1^fl/fl mice. […] A similar approach was used in human islets, whereby islets were co-transduced with Ad-RIP1-GCaMP6s and either Ad-U6-shSWELL1-mCherry or Ad-U6-shSCR-mCherry. Upon islet dissociation, only double-labelled GCaMP6s+/mCherry+ primary human β-cells were imaged. As with mouse primary β-cells, robust glucose-stimulated Ca^2+ transients in Ad-shSCR treated human primary β-cells were observe, and this is markedly abograted upon Ad-shSWELL1-mediated SWELL1 knock-down. […] In pancreatic β-cells, physiological intracellular Cl^− concentration is maintained at 34-36 mM by NKCC1 transporters to generate a depolarizing Cl^− current upon activation of a Cl^− conductance, since ECl−=˜−35 mV. […]

Compound | swell-activated adipocyte current [1] | swell-activated current [2] | swell-activated current [3] | β-cell VRAC activated by physiological increases in glucose (β-cell VRAC [4]) | β-cell VRAC activated by physiological increases in glucose (β-cell VRAC [5]) | β-cell VRAC activated by physiological increases in glucose (β-cell VRAC [6]) | SWELL1 protein expression (SWELL1) | glucose tolerance associated with obesity [7] | glucose-stimulated Ca2+ signaling (WT MIN6 cells) | glucose-stimulated Ca2+ signaling [8]
CCCCC1(C2CCCC2)Cc2cc(OCCCC(=O)O)c(Cl)c(Cl)c2C1=O (stereo not shown) [DCPIB, 4-[(2-Butyl-6,7-dichloro-2-cyclopentyl-2,3-dihydro-1-oxo-1H-inden-5-yl)oxy]butanoic acid] | blocked | fully inhibited | fully inhibited | blocked | blocked | blocked | induced a compensatory increase | normalized | – | –
CCCCNc1cc(C(=O)O)cc(S(N)(=O)=O)c1Oc1ccccc1 [bumetanide] | – | – | – | – | – | – | – | – | fully inhibits | fully inhibits
